{"source": "patent US20100215716A1", "about": "“COMPOSITIONS AND METHODS FOR COATING ORTHOPEDIC IMPLANTS” (Biomet Manufacturing Corp., priority 2009, published 2010)", "assay": "Solubility of antibiotics and polymer in organic solvents"}
{"smiles": "CC[C@H]1OC(=O)[C@H](C)[C@@H](O[C@H]2C[C@@](C)(OC)[C@@H](O)[C@H](C)O2)[C@H](C)[C@@H](O[C@@H]2O[C@H](C)C[C@H](N(C)C)[C@H]2O)[C@](C)(O)C[C@@H](C)C(=O)[C@H](C)[C@@H](O)[C@]1(C)O", "note": "[erythromycin]", "values": [{"measurement": "solubility in ethyl acetate, dichloromethane, and tetrahydrofuran", "value": "dissolved"}]}
